Assay results from ChEMBL document CHEMBL3425505, “Selected hybrid natural products as tubulin modulators” (Eur J Med Chem, 2015).
Converted amounts (≈) assume the structure as drawn.

Tests used:
[1] = Cytotoxicity against human H460 cells; type: functional, cell-based; details: NCI-H460
[2] = system: MCF7; test: Cytotoxicity against human MCF7 cells; type: functional, cell-based
[3] = system: A2780; test: Cytotoxicity against human A2780 cells; type: functional, cell-based
[4] = system: B16; test: Cytotoxicity against mouse B16 cells; type: functional, cell-based
[5] = system: SR; test: Growth inhibition of human SR cells; type: functional
[6] = system: CCRF-CEM; test: Growth inhibition of human CCRF-CEM cells; type: functional
[7] = organism: Homo sapiens; test: Toxicity in metastatic breast cancer patient assessed as incidence of neuropathy; type: organism-based; details: in vivo
[8] = organism: Homo sapiens; test: Toxicity in metastatic breast cancer patient assessed as incidence of peripheral neuropathy; type: organism-based; details: in vivo
[9] = organism: Homo sapiens; test: Toxicity in metastatic breast cancer patient assessed as neuropathy rate; type: organism-based; details: in vivo

## CO[C@H]1/C=C(/C)CCC[C@H](C)[C@H](O)[C@@H](C)C(=O)C(C)(C)[C@@H](O)CC(=O)O[C@@H]1/C(C)=C/c1csc(C)n1
[1]
  IC50: 4.9 nM
[2]
  IC50: 3.7 nM

## C/C(=C\c1csc(C)n1)[C@@H]1C[C@@H]2O[C@@H]2CCC[C@@H]2CCC[C@@H](C(=O)C(C)(C)[C@@H](O)CC(=O)O1)[C@H]2O
[3]
  EC50: 8.5 µM

## C/C(=C\c1csc(C)n1)[C@@H]1C[C@@H]2O[C@]2(C)CCC[C@@H]2CCC[C@@H](C(=O)C(C)(C)[C@@H](O)CC(=O)O1)[C@H]2O
[3]
  EC50: 8.5 µM

## C=C1C[C@@H]2CC[C@@]34O[C@@H]5[C@@H]6O[C@](O)([C@H](O3)[C@@H]6O[C@H]3CC[C@H](CC(=O)O[C@@H]6[C@@H](C)[C@@H]7O[C@@H]8C[C@]9(C[C@@H]%10O[C@]%11(C[C@H](C)[C@@H]%12O[C@H](CC(=O)O)[C@H](O)C[C@@H]%12O%11)C[C@H](C)[C@@H]%10O9)O[C@@H]8C[C@@H]7O[C@H]6C[C@H]6O[C@@H](CC[C@@H]1O2)C[C@@H](C)C6=C)O[C@H]53)[C@H]4O
[4]
  IC50: 5 ng/mL (≈ 4.44 nM)

## CC1=C(c2ccc(C)cn2)CC2/C=C(/C)CCC[C@H](C)[C@H](O)[C@@H](C)C(=O)C(C)(C)[C@@H](O)CC(=O)O[C@H]12 (single isomer, unassigned)
[5]
  GI50: 2.9 nM
[6]
  GI50: 2.7 nM

## C=C1C[C@@H]2CC[C@@]34C[C@H]5O[C@H]6[C@@H](O3)[C@H]3O[C@H](CC[C@@H]3O[C@H]6[C@H]5O4)CC(=O)C[C@@H]3[C@@H](OC)[C@@H](C[C@H](O)CN)O[C@H]3C[C@H]3O[C@@H](CC[C@@H]1O2)C[C@@H](C)C3=C [ERIBULIN]
[7]
  Activity: 33.3%
[8]
  Activity: 31.4%
[9]
  Activity: 35%

## C/C(=C\c1csc(C)n1)[C@@H]1C[C@@H]2O[C@]2(C)CCC[C@H](C)[C@H](O)[C@@H](C)C(=O)C(C)(C)[C@@H](O)CC(=O)N1 [IXABEPILONE]
[7]
  Activity: 48%
[8]
  Activity: 44%
[9]
  Activity: 63%
